The values that follow are results of earlier work, collected in patent US7781642B2, “Animal model having a chimeric human liver and susceptible to human hepatitis C virus infection” (KMT Hepatech, Inc., priority 2000, dated 2010).

Data set [1] deals with HBV. Conditions: post needle-stick exposure; cited from earlier work.
Data set [2] deals with HCV. Conditions: HCV patients; cited from earlier work.

For the substance Hepatitis B Immunoglobulin [HBIg], in data set [1], the “Cases in which transmission of HBV was prevented” value is given as 80%.

As for interferon and ribavirin, the Sustained response rate entry in data set [2] is “up to 40%”.
